In US9212182B2, “Bicyclic sulfonamide compounds as sodium channel inhibitors” (AMGEN INC., priority 2013, dated 2015) one finds IC50 data, which are given here for 32 compounds.

In the first assay the target is Nav 1.7 (Homo sapiens (Human), UniProt Q15858). Kind of assay: in-vitro Nav 1.7 PX (IC50). It counts as cell-based.
Sequence of Nav 1.7 (Q15858 whole entry): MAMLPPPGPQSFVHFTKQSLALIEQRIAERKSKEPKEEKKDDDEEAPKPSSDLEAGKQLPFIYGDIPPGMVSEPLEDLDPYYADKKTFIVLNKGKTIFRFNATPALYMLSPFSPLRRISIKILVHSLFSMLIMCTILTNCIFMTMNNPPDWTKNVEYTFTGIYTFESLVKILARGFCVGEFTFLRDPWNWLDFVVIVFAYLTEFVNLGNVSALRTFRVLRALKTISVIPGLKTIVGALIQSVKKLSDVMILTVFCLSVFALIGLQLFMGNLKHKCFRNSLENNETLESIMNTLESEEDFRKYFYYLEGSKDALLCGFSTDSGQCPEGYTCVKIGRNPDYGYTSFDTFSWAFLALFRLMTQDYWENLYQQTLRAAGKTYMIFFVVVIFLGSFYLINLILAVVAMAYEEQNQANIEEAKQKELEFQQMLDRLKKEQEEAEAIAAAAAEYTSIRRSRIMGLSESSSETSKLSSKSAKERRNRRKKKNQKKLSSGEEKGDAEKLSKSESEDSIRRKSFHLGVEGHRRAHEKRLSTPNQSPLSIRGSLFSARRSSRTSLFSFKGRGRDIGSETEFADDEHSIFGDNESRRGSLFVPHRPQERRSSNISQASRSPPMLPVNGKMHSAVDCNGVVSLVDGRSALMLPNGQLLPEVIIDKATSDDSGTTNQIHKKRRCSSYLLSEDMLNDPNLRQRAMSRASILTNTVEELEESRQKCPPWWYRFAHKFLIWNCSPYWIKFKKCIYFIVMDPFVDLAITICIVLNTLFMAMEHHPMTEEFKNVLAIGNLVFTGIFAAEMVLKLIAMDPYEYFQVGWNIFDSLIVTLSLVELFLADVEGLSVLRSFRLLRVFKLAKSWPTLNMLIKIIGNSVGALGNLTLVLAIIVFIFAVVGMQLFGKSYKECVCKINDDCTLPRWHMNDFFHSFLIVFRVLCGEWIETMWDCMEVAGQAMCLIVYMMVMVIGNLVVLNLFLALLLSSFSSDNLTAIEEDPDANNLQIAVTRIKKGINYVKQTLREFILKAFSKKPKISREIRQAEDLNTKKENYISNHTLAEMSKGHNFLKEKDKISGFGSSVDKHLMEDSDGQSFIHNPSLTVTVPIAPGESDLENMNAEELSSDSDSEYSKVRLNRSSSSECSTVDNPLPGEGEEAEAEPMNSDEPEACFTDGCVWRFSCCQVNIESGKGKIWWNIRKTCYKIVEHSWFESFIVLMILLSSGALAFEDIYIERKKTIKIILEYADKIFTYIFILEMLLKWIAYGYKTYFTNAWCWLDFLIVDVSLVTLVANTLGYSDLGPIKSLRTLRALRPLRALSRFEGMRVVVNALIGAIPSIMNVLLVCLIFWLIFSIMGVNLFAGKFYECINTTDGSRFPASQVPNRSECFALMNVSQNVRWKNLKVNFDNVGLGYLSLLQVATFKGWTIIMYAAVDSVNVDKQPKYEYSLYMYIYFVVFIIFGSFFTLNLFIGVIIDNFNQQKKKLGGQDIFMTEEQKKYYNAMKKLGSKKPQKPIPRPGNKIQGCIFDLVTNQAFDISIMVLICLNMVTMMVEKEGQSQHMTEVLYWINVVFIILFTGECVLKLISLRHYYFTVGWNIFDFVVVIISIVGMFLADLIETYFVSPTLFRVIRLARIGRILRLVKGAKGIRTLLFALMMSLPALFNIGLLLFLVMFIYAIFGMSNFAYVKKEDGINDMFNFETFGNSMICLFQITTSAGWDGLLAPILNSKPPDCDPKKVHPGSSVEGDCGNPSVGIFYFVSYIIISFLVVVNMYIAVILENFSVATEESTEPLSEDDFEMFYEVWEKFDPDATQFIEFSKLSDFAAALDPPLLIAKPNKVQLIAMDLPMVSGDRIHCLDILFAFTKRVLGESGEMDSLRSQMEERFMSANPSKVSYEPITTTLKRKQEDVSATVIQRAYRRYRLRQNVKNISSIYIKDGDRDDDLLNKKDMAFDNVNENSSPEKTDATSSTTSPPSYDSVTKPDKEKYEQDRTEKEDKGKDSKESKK
Details: not given
By IC50 is commonly meant the point on the concentration scale where inhibition reaches its midpoint. Higher therefore signals a need for much substance. `COc1ccc(-c2cccc(F)c2)cc1-n1c(=O)ccc2cc(S(=O)(=O)Nc3ccon3)ccc21` [Example 482, 1-(3′-fluoro-4-methoxy-3-biphenylyl)-N-3-isoxazolyl-2-oxo-1,2-dihydro-6-quinolinesulfonamide] returned an IC50 of 80 nM. This lies in the double-digit nanomolar range.

As for `COc1ccc(-c2cncc(F)c2)cc1-n1c(=O)ccc2cc(S(=O)(=O)Nc3ccon3)ccc21` [Example 485, 1-(5-(5-fluoro-3-pyridinyl)-2-methoxyphenyl)-N-3-isoxazolyl-2-oxo-1,2-dihydro-6-quinolinesulfonamide], the IC50 turned out to be 690 nM.

Turning to `COc1ccc(-c2cnn(C)c2)cc1-n1c(=O)ccc2cc(S(=O)(=O)Nc3ccon3)ccc21` [Example 486, N-3-isoxazolyl-1-(2-methoxy-5-(1-methyl-1H-pyrazol-4-yl)phenyl)-2-oxo-1,2-dihydro-6-quinolinesulfonamide], the IC50 is 27100 nM. This IC50 is about 39-fold higher than that of the compound before.

On to `COc1ccc(-c2cc(F)cnc2OC)cc1-n1c(=O)ccc2cc(S(=O)(=O)Nc3ccon3)ccc21` [Example 488, 1-(5-(5-fluoro-2-methoxy-3-pyridinyl)-2-methoxyphenyl)-N-3-isoxazolyl-2-oxo-1,2-dihydro-6-quinolinesulfonamide], for which half-maximal inhibition (IC50) required 299 nM.

In turn, `COc1ccc(-c2cncc(C#N)c2)cc1-n1c(=O)ccc2cc(S(=O)(=O)Nc3ccon3)ccc21` [Example 491, 1-(5-(5-cyano-3-pyridinyl)-2-methoxyphenyl)-N-3-isoxazolyl-2-oxo-1,2-dihydro-6-quinolinesulfonamide] had an IC50 of 2070 nM.

In turn, `COc1ccc(-c2cncc(C(F)(F)F)c2)cc1-n1c(=O)ccc2cc(S(=O)(=O)Nc3ccon3)ccc21` [Example 492, N-3-isoxazolyl-1-(2-methoxy-5-(5-(trifluoromethyl)-3-pyridinyl)phenyl)-2-oxo-1,2-dihydro-6-quinolinesulfonamide] came in with an IC50 of 298 nM.

The compound `COc1ccc(-c2cccc(C#N)c2)cc1-n1c(=O)ccc2cc(S(=O)(=O)Nc3ccon3)ccc21` [Example 493, 1-(3′-cyano-4-methoxy-3-biphenylyl)-N-3-isoxazolyl-2-oxo-1,2-dihydro-6-quinolinesulfonamide] showed an IC50 of 418 nM.

Take `COc1ccc(-c2cncc(Cl)c2)cc1-n1c(=O)ccc2cc(S(=O)(=O)Nc3ccon3)ccc21` [Example 494, 1-(5-(5-chloro-3-pyridinyl)-2-methoxyphenyl)-N-3-isoxazolyl-2-oxo-1,2-dihydro-6-quinolinesulfonamide]: it took 682 nM to reach half-maximal inhibition (IC50).

In turn, `COc1ccc(-c2cccnc2F)cc1-n1c(=O)ccc2cc(S(=O)(=O)Nc3ccon3)ccc21` [Example 495, 1-(5-(2-fluoro-3-pyridinyl)-2-methoxyphenyl)-N-3-isoxazolyl-2-oxo-1,2-dihydro-6-quinolinesulfonamide] displayed an IC50 of 2450 nM.

`COc1ccc(-c2ccnc(F)c2)cc1-n1c(=O)ccc2cc(S(=O)(=O)Nc3ccon3)ccc21` [Example 496, 1-(5-(2-fluoro-4-pyridinyl)-2-methoxyphenyl)-N-3-isoxazolyl-2-oxo-1,2-dihydro-6-quinolinesulfonamide] had an IC50 of 2770 nM. This IC50 and that of the compound before are within 1.5-fold of each other.

Consider `COc1cc(-c2cccc(F)c2)c(Cl)cc1-n1c(=O)cc(C)c2cc(S(=O)(=O)Nc3ccon3)ccc21` [Example 567, 1-(2-chloro-3′-fluoro-5-methoxy-4-biphenylyl)-N-3-isoxazolyl-4-methyl-2-oxo-1,2-dihydro-6-quinolinesulfonamide], for which the IC50 came out at 162 nM.

The assay is the same for the next values; noted with them: in-vitro Nav 1.7 PX data.
Consider `O=c1ccc2cc(S(=O)(=O)Nc3ccon3)ccc2n1-c1ccc(-c2cccc(C(F)(F)F)c2)cc1` [Example 591, N-3-isoxazolyl-2-oxo-1-(3′-(trifluoromethyl)-4-biphenylyl)-1,2-dihydro-6-quinolinesulfonamide], for which the midpoint of inhibition, the IC50, lay at 732 nM. That is a sub-micromolar value.

For `COc1cc(-c2ccccn2)c(F)cc1-n1c(=O)ccc2cc(S(=O)(=O)Nc3ccon3)ccc21` [Example 594, 1-(5-fluoro-2-methoxy-4-(2-pyridinyl)phenyl)-N-3-isoxazolyl-2-oxo-1,2-dihydro-6-quinolinesulfonamide], inhibition was half-maximal at 1660 nM (IC50).

Compound `COc1cc(-c2cccc(F)c2)ncc1-n1c(=O)ccc2cc(S(=O)(=O)Nc3ccon3)ccc21` [Example 601, 1-(6-(3-fluorophenyl)-4-methoxy-3-pyridinyl)-N-3-isoxazolyl-2-oxo-1,2-dihydro-6-quinolinesulfonamide] had an IC50 of 1770 nM.

In turn, `COc1ccc(-c2cc(F)cc(Cl)c2)cc1-n1c(=O)ccc2cc(S(=O)(=O)Nc3ccncn3)ccc21` [Example 610, 1-(3′-chloro-5′-fluoro-4-methoxy-3-biphenylyl)-2-oxo-N-4-pyrimidinyl-1,2-dihydro-6-quinolinesulfonamide] showed an IC50 of 13 nM.

Compound `COc1cc(Cl)c(-c2cc(F)cc(Cl)c2)cc1-n1c(=O)ccc2cc(S(=O)(=O)Nc3ccon3)ccc21` [Example 613, 1-(3′,6-dichloro-5′-fluoro-4-methoxy-3-biphenylyl)-N-3-isoxazolyl-2-oxo-1,2-dihydro-6-quinolinesulfonamide] gave an IC50 of 18 nM.

`COc1cnc(Cl)cc1-n1c(=O)ccc2cc(S(=O)(=O)Nc3ccon3)ccc21` [Example 617, 1-(2-chloro-5-methoxy-4-pyridinyl)-N-3-isoxazolyl-2-oxo-1,2-dihydro-6-quinolinesulfonamide] returned an IC50 of 3880 nM. Compared with the last compound, the IC50 is about 220-fold higher.

With `COc1cnc(-c2cc(F)cc(Cl)c2)cc1-n1c(=O)ccc2cc(S(=O)(=O)Nc3ccon3)ccc21` [Example 618, 1-(2-(3-chloro-5-fluorophenyl)-5-methoxy-4-pyridinyl)-N-3-isoxazolyl-2-oxo-1,2-dihydro-6-quinolinesulfonamide], inhibition was half-maximal at 605 nM (IC50).

`COc1ccc(C2CCOCC2)cc1-n1c(=O)ccc2cc(S(=O)(=O)Nc3ccon3)ccc21` [Example 620, N-3-isoxazolyl-1-(2-methoxy-5-(tetrahydro-2H-pyran-4-yl)phenyl)-2-oxo-1,2-dihydro-6-quinolinesulfonamide] showed an IC50 of 8100 nM.

With `COc1cc(C#CC(F)(F)F)c(F)cc1-n1c(=O)ccc2cc(S(=O)(=O)Nc3ccon3)ccc21` [Example 644, 1-(5-fluoro-2-methoxy-4-(3,3,3-trifluoro-1-PROPYN-1-yl)phenyl)-N-3-isoxazolyl-2-oxo-1,2-dihydro-6-quinolinesulfonamide], the IC50 came to 387 nM.

Still in this assay, the particulars now being: in-vitro Nav 1.7 PX data (PatchXpress).
In the case of `Cc1cc(-c2cc(OCC#N)c(-n3c(=O)ccc4cc(S(=O)(=O)Nc5ccon5)ccc43)cc2F)ccc1Cl` [Example 622, 1-(4′-chloro-5-(cyanomethoxy)-2-fluoro-3′-methyl-[1,1′-biphenyl]-4-yl)-N-(isoxazol-3-yl)-2-oxo-1,2-dihydroquinoline-6-sulfonamide], the midpoint of inhibition, the IC50, lay at 312 nM.

Consider `N#CCOc1cc(Br)c(F)cc1-n1c(=O)ccc2cc(S(=O)(=O)Nc3ccon3)ccc21` [Example 623, 1-(4-bromo-2-(cyanomethoxy)-5-fluorophenyl)-N-(isoxazol-3-yl)-2-oxo-1,2-dihydroquinoline-6-sulfonamide], for which the IC50 is 7780 nM.

Turning to `O=c1ccc2cc(S(=O)(=O)Nc3ccon3)ccc2n1-c1cc(F)c(-c2cc(F)cc(F)c2)cc1O` [Example 624, N-(isoxazol-3-yl)-2-oxo-1-(2,3′,5′-trifluoro-5-hydroxy-[1,1′-biphenyl]-4-yl)-1,2-dihydroquinoline-6-sulfonamide], the IC50 was 1730 nM. Against the preceding compound, the IC50 is about 4.5-fold lower.

The compound `O=c1ccc2cc(S(=O)(=O)Nc3ccon3)ccc2n1-c1cc(F)c(Br)cc1OC1CCNC1` (centres unmarked) [Example 625, 1-(4-bromo-5-fluoro-2-(PYRROLIDIN-3-YLOXY)phenyl)-N-(isoxazol-3-yl)-2-oxo-1,2-dihydroquinoline-6-sulfonamide] had an IC50 of 5610 nM.

The assay is the same for the next values; noted with them: in-vitro PatchXpress (PX).
`COc1nc(-c2cc(F)cc(F)c2)c(Cl)cc1-n1c(=O)ccc2cc(S(=O)(=O)Nc3ccon3)ccc21` [Example 447, 1-(5-chloro-6-(3,5-difluorophenyl)-2-methoxypyridin-3-yl)-N-(isoxazol-3-yl)-2-oxo-1,2-dihydroquinoline-6-sulfonamide] displayed a half-maximal inhibitory concentration (IC50) of 59 nM.

The compound `COc1nc(-c2ccc(Cl)c(C)c2)c(Cl)cc1-n1c(=O)ccc2cc(S(=O)(=O)Nc3ccon3)ccc21` [Example 448, 1-(5-chloro-6-(4-chloro-3-methylphenyl)-2-methoxypyridin-3-yl)-N-(isoxazol-3-yl)-2-oxo-1,2-dihydroquinoline-6-sulfonamide] returned an IC50 of 115 nM.

In turn, `COc1nc(-c2cc(F)cc(Cl)c2)c(Cl)cc1-n1c(=O)ccc2cc(S(=O)(=O)Nc3ccon3)ccc21` [Example 449, 1-(5-chloro-6-(3-chloro-5-fluorophenyl)-2-methoxypyridin-3-yl)-N-(isoxazol-3-yl)-2-oxo-1,2-dihydroquinoline-6-sulfonamide] returned a 50% inhibitory concentration (IC50) of 85 nM.

Take `COc1cc(-c2ccc(C)nc2)c(F)cc1-n1c(=O)ccc2cc(S(=O)(=O)Nc3ccon3)ccc21` [Example 500, 1-(5-fluoro-2-methoxy-4-(6-methyl-3-pyridinyl)phenyl)-N-3-isoxazolyl-2-oxo-1,2-dihydro-6-quinolinesulfonamide]: the IC50 was determined as 2840 nM.

In turn, `COc1cc(-c2ccncc2)c(F)cc1-n1c(=O)ccc2cc(S(=O)(=O)Nc3ccon3)ccc21` [Example 505, 1-(5-fluoro-2-methoxy-4-(4-pyridinyl)phenyl)-N-3-isoxazolyl-2-oxo-1,2-dihydro-6-quinolinesulfonamide] gave an IC50 of 1800 nM.

In the case of `COc1cc(N2CC(C(F)(F)F)C2)c(F)cc1-n1c(=O)ccc2cc(S(=O)(=O)Nc3ccon3)ccc21` [Example 530, 1-(5-fluoro-2-methoxy-4-(3-(trifluoromethyl)-1-azetidinyl)phenyl)-N-3-isoxazolyl-2-oxo-1,2-dihydro-6-quinolinesulfonamide], half-maximal inhibition (IC50) was put at 495 nM.

`COc1cc(-c2cc(F)cnc2OC)c(F)cc1-n1c(=O)ccc2cc(S(=O)(=O)Nc3ccon3)ccc21` [Example 531, 1-(5-fluoro-4-(5-fluoro-2-methoxy-3-pyridinyl)-2-methoxyphenyl)-N-3-isoxazolyl-2-oxo-1,2-dihydro-6-quinolinesulfonamide] came in with an IC50 of 342 nM.

As to `COc1cc(-c2cnc(C)c(Cl)c2)c(F)cc1-n1c(=O)ccc2cc(S(=O)(=O)Nc3ccon3)ccc21` [Example 532, 1-(4-(5-chloro-6-methyl-3-pyridinyl)-5-fluoro-2-methoxyphenyl)-N-3-isoxazolyl-2-oxo-1,2-dihydro-6-quinolinesulfonamide], half-maximal inhibition (IC50) was put at 282 nM.
